Data published in patent US20230321284A1, “COMPOUND, CONTRAST AGENT, AND METHOD FOR PRODUCING COMPOUND” (ST. MARIANNA UNIVERSITY SCHOOL OF MEDICINE, priority 2020, published 2023).

How the values were obtained:
[1] = target: T1, asialoglycoprotein receptor (Homo sapiens, UniProt P07306+P07307); assay: Comparison of uptake activity by asialoglycoprotein receptor among compounds in HepG2 (Test Example 2); assay type: cell-based; settings: compound 1.0 mM/mL, I-ASOR 0.4 μg/mL, 37° C. for 30 minutes, FIG. 3
T1 construct: reacted with HepG2 cells washed with ice-cold MEM (GIBCO) in 6 wells; endogenous in cells; host or cells: HepG2
T1 sequence (P07306 1-291): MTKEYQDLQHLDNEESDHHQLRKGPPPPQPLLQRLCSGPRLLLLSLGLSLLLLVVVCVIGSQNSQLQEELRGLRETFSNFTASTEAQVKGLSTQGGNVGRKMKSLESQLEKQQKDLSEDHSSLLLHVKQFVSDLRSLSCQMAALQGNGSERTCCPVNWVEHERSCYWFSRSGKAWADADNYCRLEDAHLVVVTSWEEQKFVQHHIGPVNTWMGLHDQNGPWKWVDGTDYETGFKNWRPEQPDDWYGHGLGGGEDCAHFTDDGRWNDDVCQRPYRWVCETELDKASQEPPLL
T1 sequence (P07307 1-311): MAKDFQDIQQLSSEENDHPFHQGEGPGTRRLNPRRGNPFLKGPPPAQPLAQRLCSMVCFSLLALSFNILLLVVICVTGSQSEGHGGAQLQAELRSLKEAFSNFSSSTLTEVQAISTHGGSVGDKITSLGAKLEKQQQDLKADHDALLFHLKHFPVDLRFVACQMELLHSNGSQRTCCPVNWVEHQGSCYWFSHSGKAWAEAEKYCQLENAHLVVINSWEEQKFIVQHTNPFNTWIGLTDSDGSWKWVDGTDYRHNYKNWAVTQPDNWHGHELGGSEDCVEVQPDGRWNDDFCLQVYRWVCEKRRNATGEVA
Procedure: Uptake activity by an asialoglycoprotein receptor was compared among MEG-2, MEG-4, RYO-1, and RYO-2 by use of the same method as in Test Example 1.
A PBS solution containing 0.4 μg/mL I-ASOR obtained in the same manner as in Test Example 1 and 1.0 mM/mL MEG-2, MEG-4, RYO-1, or RYO-2 was prepared and reacted with HepG2 washed with ice-cold MEM (GIBCO) in 6 wells at 37° C. for 30 minutes. The cells were thoroughly washed and then lysed using 0.1 N NaOH, and radiation dose “A” taken up into HepG2 was measured.
An experiment was conducted as a positive control in which a PBS solution containing 0.4 μg/mL I-ASOR and 1000 μg/mL nonlabelled ASOR was prepared and reacted with HepG2 washed with ice-cold MEM (GIBCO) in 6 wells at 4° C. for 30 minutes.
Next, the background of nonspecific binding of I-ASOR was measured as follows in order to eliminate the influence of the nonspecific binding of I-ASOR to the cells. Specifically, I-ASOR (0.4 μg/mL) and a 100-fold concentration (40 μg/mL) of nonlabelled ASOR were mixed and reacted with HepG2 in the same manner as above. Then, the obtained cells were washed and lysed, and radiation dose “B” was measured. The radiation dose “B” as the background was commonly used in all of the control sample, the positive control sample, and the sample supplemented with each compound.
Next, “A-B” was calculated as to each sample to calculate I-ASOR specifically taken up into HepG2. The experiment was conducted in triplicate to calculate standard deviation.

[2] = Contrast experiment: CT imaging after tail vein injection (Test Example 3); assay type: in vivo; settings: 9-week-old male ICR mouse, MEG-1 dose 52 mg/animal, images before, during, 15 minutes and 1 hour after administration
Procedure: A 9-week-old male ICR mouse purchased from CLEA Japan, Inc. was anesthetized by isoflurane inhalation. While the respiratory condition was monitored with DELPet μCT100 application software (DELBio, Inc.), MEG-1 was gradually administered by injection from the tail vein. The dose of MEG-1 was set to 52 mg/animal.
CT images were taken before administration, during administration, 15 minutes after administration and 1 hour after administration. Image data from the chest to the lower abdomen was reconstituted at a pixel size of […] and converted to dicom data. Further, the images were analyzed with VivoQuant software (inviCRO. LLC).
A similar test was conducted using MEG-2, MEG-4, or RYO-2 instead of MEG-1.

[3] = target: T1, asialoglycoprotein receptor; assay: Uptake inhibition test of I-ASOR in liver cancer cell line HepG2 (Test Example 1); assay type: cell-based; settings: compound 100 μg/mL, I-ASOR 6 μg/mL, 4° C. for 30 minutes, FIG. 1
Procedure: RYO-1, MEG-1, and MEG-2 prepared in Examples were subjected to an uptake inhibition test, in which the uptake is performed by an asialoglycoprotein receptor specifically expressed in hepatocytes, using a liver cancer cell line HepG2 in accordance with J Gastroenterol 1998, 33, 855-859. Specifically, the test is based on the following method.
First, orosomucoid (Sigma-Aldrich Co., LLC) was converted to an asialo compound through reaction with immobilized neuraminidase (Sigma-Aldrich Co., LLC) at 37° C. for 12 hours. This asialo-orosomucoid (ASOR) was labeled with radioactive iodine (125I) by use of the chloramine-T method to prepare I-ASOR.
The obtained I-ASOR was prepared as a 6 μg/mL solution in PBS and reacted with HepG2 cells washed with ice-cold MEM (GIBCO) in 6 wells at 4° C. for 30 minutes. The cells were thoroughly washed and then lysed using 0.1 N NaOH, and radiation dose “A” taken up into the cells was measured (control sample). […]
Next, the background of nonspecific binding of I-ASOR was measured as follows in order to eliminate the influence of the nonspecific binding of I-ASOR to the cells. […] Then, the obtained cells were washed and lysed, and radiation dose “B” was measured. […]
Next, “A-B” was calculated as to each sample to calculate I-ASOR specifically taken up into HepG2. […]

Panc-1 cells = assay: Uptake inhibition test of I-ASOR in pancreatic cancer cell line Panc-1 having no asialoglycoprotein receptor (Test Example 1); assay type: cell-based; settings: compound 100 μg/mL, I-ASOR 6 μg/mL, 4° C. for 30 minutes, FIG. 2
Procedure: A similar experiment was conducted using a pancreatic cancer cell line Panc-1 having no asialoglycoprotein receptor. Specifically, the test is based on the following method.
I-ASOR labeled with radioactive iodine (125I) in the same manner as above was prepared as a 6 μg/mL solution in PBS and reacted with Panc-1 cells washed with ice-cold MEM (GIBCO) in 6 wells at 4° C. for 30 minutes. The cells were thoroughly washed and then lysed using 0.1 N NaOH, and radiation dose “A” taken up into the cells was measured (control sample). Similar measurement was performed by the addition of I-ASOR as well as MEG-1, MEG-2, or RYO-1 at 100 μg/mL to measure radiation dose “A” when each compound was added.
Next, the background of nonspecific binding of I-ASOR was measured as follows in order to eliminate the influence of the nonspecific binding of I-ASOR to the cells. Specifically, I-ASOR (6 μg/mL) and a 100-fold concentration (600 μg/mL) of nonlabelled ASOR were mixed and reacted with Panc-1 in the same manner as above. Then, the obtained cells were washed and lysed, and radiation dose “B” was measured. The radiation dose “B” as the background was commonly used in all of the control sample and the sample supplemented with each compound.
Next, “A-B” was calculated as to each sample to calculate I-ASOR specifically taken up into Panc-1. […]

| Structure (SMILES) | inhibition of the uptake of the ligand (I-ASOR) in HepG2 [1] | inhibitory ability on ligand uptake compared between compounds [1] | CT images: appearance of high-absorption liquid (excretion sites) [2] | inhibition of the uptake of the ligand (I-ASOR) in HepG2 [3] | inhibition of the uptake of the ligand (I-ASOR) in Panc-1 (Panc-1 cells) |
| --- | --- | --- | --- | --- | --- |
| O=C(NCCOCCO[C@@H]1OC(CO)[C@H](O)[C@H](O)C1O)c1c(I)c(C(=O)NCCOCCO[C@@H]2OC(CO)[C@H](O)[C@H](O)C2O)c(I)c(C(=O)NCCOCCO[C@@H]2OC(CO)[C@H](O)[C@H](O)C2O)c1I (stereo partly drawn) [MEG-4] | competitively inhibited the uptake of the ligand in HepG2 | higher in MEG-4 than in MEG-2 | a liquid that exhibited high absorption, which was not observed before administration, was confirmed to appear over time in the intestine and in the urinary bladder | – | – |
| CC(=O)Nc1c(I)c(NC(C)=O)c(I)c(C(=O)NCCO[C@@H]2OC(CO)[C@H](O)C(O)[C@@H]2O)c1I (stereo partly drawn) [MEG-1] | – | – | a liquid that exhibited high absorption, which was not observed before administration, was confirmed to appear over time in the intestine and in the urinary bladder | competitively inhibit the uptake of the ligand | none of RYO-1, MEG-1, and MEG-2 inhibited the uptake of the ligand |
| CC(=O)Nc1c(I)c(NC(C)=O)c(I)c(C(=O)NCCNC(=O)[C@H](O)[C@@H](O)C(O[C@@H]2OC(CO)[C@H](O)[C@H](O)C2O)[C@@H](O)CO)c1I (stereo partly drawn) [RYO-1] | competitively inhibited the uptake of the ligand in HepG2 | – | – | competitively inhibit the uptake of the ligand | none of RYO-1, MEG-1, and MEG-2 inhibited the uptake of the ligand |
| O=C(NCCNC(=O)[C@H](O)[C@@H](O)[C@H](O[C@@H]1O[C@H](CO)[C@H](O)[C@H](O)[C@H]1O)[C@H](O)CO)c1c(I)c(C(=O)NCCNC(=O)[C@H](O)[C@@H](O)[C@H](O[C@@H]2O[C@H](CO)[C@H](O)[C@H](O)[C@H]2O)[C@H](O)CO)c(I)c(C(=O)NCCNC(=O)[C@H](O)[C@@H](O)C(O[C@@H]2O[C@H](CO)[C@H](O)[C@H](O)[C@H]2O)[C@H](O)CO)c1I (stereo partly drawn) [RYO-2] | competitively inhibited the uptake of the ligand in HepG2 | higher in RYO-2 than in RYO-1 | a liquid that exhibited high absorption, which was not observed before administration, was confirmed to appear over time in the intestine and in the urinary bladder | – | – |
